Laboratory results reported in PubChem BioAssay (NCI).
Values joined by “and” are separate entries in the source; they are usually repeats but may differ in a detail not shown here. Equal values may be shown once.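 Each compound was tested at five concentrations against cells in 96-well plates for 48 hours. Abbreviation: GI50, concentration required for 50% inhibition of growth. TGI: total growth inhibition.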

Columns and labels:
Assay in all cases: NCI-60 cell line screen, 48 h; in the data active means GI50 below about 0.43 µM; inactive means the rest
[1] = tested on: 786-0 renal
[2] = tested on: A498 renal
[3] = tested on: A549 NSCLC
[4] = tested on: ACHN renal
[5] = tested on: BT-549 breast
[6] = tested on: CAKI-1 renal
[7] = tested on: CCRF-CEM leukemia
[8] = tested on: COLO 205 colon
[9] = tested on: DU-145 prostate
[10] = tested on: EKVX NSCLC
[11] = tested on: HCC-2998 colon
[12] = tested on: HCT-116 colon
[13] = tested on: HL-60(TB) leukemia
[14] = tested on: HOP-62 NSCLC
[15] = tested on: HOP-92 NSCLC
[16] = tested on: HS 578T breast
[17] = tested on: HT29 colon
[18] = tested on: IGROV1 ovarian
[19] = tested on: K-562 leukemia
[20] = tested on: KM12 colon
[21] = tested on: LOX IMVI melanoma
[22] = tested on: M14 melanoma
[23] = tested on: MALME-3M melanoma
[24] = tested on: MCF7 breast
[25] = tested on: MDA-MB-231 breast
[26] = tested on: MDA-MB-435
[27] = tested on: MDA-N
[28] = tested on: MOLT-4 leukemia
[29] = tested on: NCI-H226 lung
[30] = tested on: NCI-H23 lung
[31] = tested on: NCI-H460 lung
[32] = tested on: NCI-H522 lung
[33] = tested on: NCI/ADR-RES ovarian
[34] = tested on: OVCAR-3 ovarian
[35] = tested on: OVCAR-4 ovarian
[36] = tested on: PC-3 prostate
[37] = tested on: RPMI-8226 leukemia
[38] = tested on: RXF 393 renal
[39] = tested on: SF-268 CNS
[40] = tested on: SF-295 CNS
[41] = tested on: SF-539 CNS
[42] = tested on: SK-MEL-2 melanoma
[43] = tested on: SK-MEL-28 melanoma
[44] = tested on: SK-MEL-5 melanoma
[45] = tested on: SK-OV-3 ovarian
[46] = tested on: SN12C renal
[47] = tested on: SNB-19 CNS
[48] = tested on: SNB-75 CNS
[49] = tested on: SR leukemia
[50] = tested on: SW-620 colon
[51] = tested on: T-47D breast
[52] = tested on: TK-10 renal
[53] = tested on: U251 CNS
[54] = tested on: UACC-257 melanoma
[55] = tested on: UACC-62 melanoma
[56] = tested on: UO-31 renal
[57] = tested on: HCT-15 colon
[58] = tested on: OVCAR-5 ovarian
[59] = tested on: OVCAR-8 ovarian

O=C1C(N2CCCC2)=CC(=O)c2c(O)c(N3CCCC3)c(Cl)c(O)c21
> 10 µM: TGI [1] | TGI [2] | TGI [3] | TGI [4] | TGI [5] | TGI [6] | TGI [7] | TGI [8] | TGI [9] | TGI [10] | TGI [11] | TGI [12] | TGI [13] | TGI [14] | TGI [15] | TGI [16] | TGI [17] | TGI [18] | TGI [19] | TGI [20] | TGI [21] | TGI [22] | TGI [23] | TGI [24] | TGI [25] | TGI [26] | TGI [27] | TGI [28] | TGI [29] | TGI [30] | TGI [31] | TGI [32] | TGI [33] | TGI [34] | TGI [35] | TGI [36] | TGI [37] | TGI [38] | TGI [39] | TGI [40] | TGI [41] | TGI [42] | TGI [43] | TGI [44] | TGI [45] | TGI [46] | TGI [47] | TGI [48] | TGI [49] | TGI [50] | TGI [51] | TGI [52] | TGI [53] | TGI [54] | TGI [55] | TGI [56]

Nc1nc(Cl)cc(NCC2(O)CC(CO)C2)n1 (stereo not drawn)
> 100 µM: TGI [1] | TGI [2] | TGI [3] | TGI [4] | TGI [5] | TGI [6] | TGI [7] | TGI [8] | TGI [9] | TGI [10] | TGI [11] | TGI [12] | TGI [57] | TGI [13] | TGI [14] | TGI [15] | TGI [16] | TGI [17] | TGI [18] | TGI [19] | TGI [20] | TGI [21] | TGI [23] | TGI [24] | TGI [25] | TGI [26] | TGI [27] | TGI [28] | TGI [29] | TGI [30] | TGI [31] | TGI [32] | TGI [33] | TGI [34] | TGI [35] | TGI [58] | TGI [59] | TGI [36] | TGI [37] | TGI [38] | TGI [39] | TGI [40] | TGI [41] | TGI [42] | TGI [43] | TGI [44] | TGI [45] | TGI [46] | TGI [47] | TGI [48] | TGI [49] | TGI [50] | TGI [51] | TGI [52] | TGI [53] | TGI [54] | TGI [55] | TGI [56]

O=C1NC(N/N=C\C(O)C(O)C(O)CO)=N/C1=C/c1ccccc1 (stereo not drawn)
> 100 µM and 76.9 µM: TGI [22]
inactive: GI50 [2] > 100 µM and 39.3 µM | GI50 [5] > 100 µM and 27.4 µM | GI50 [7] 65.9 µM and 32.7 µM | GI50 [12] > 100 µM and 37.5 µM | GI50 [57] > 100 µM and 35.5 µM | GI50 [13] > 100 µM and 41.2 µM | GI50 [15] > 100 µM and 45 µM | GI50 [18] > 100 µM and 43.3 µM | GI50 [19] > 100 µM and 22.7 µM | GI50 [20] > 100 µM and 28.1 µM | GI50 [22] > 100 µM and 30.4 µM | GI50 [26] > 100 µM and 49.6 µM | GI50 [31] > 100 µM and 43.4 µM | GI50 [32] > 100 µM and 46.5 µM | GI50 [34] > 100 µM and 47.6 µM | GI50 [35] 84.1 µM and 23.4 µM | GI50 [36] > 100 µM and 48.9 µM | GI50 [37] > 100 µM and 33.7 µM | GI50 [40] > 100 µM and 38.2 µM | GI50 [41] > 100 µM and 34.3 µM | GI50 [43] > 100 µM and 25.6 µM | GI50 [44] > 100 µM and 38.9 µM | GI50 [46] > 100 µM and 46.8 µM | GI50 [49] > 100 µM and 44.1 µM | GI50 [50] > 100 µM and 34 µM | GI50 [51] > 100 µM and 49.2 µM
> 100 µM and 54.3 µM: TGI [28]
> 100 µM and 79.8 µM: TGI [35]
> 100 µM and 99.8 µM: TGI [5]
> 100 µM: TGI [1] | TGI [2] | TGI [3] | TGI [4] | TGI [6] | TGI [7] | TGI [8] | TGI [9] | TGI [10] | TGI [11] | TGI [12] | TGI [57] | TGI [13] | TGI [14] | TGI [15] | TGI [16] | TGI [17] | TGI [18] | TGI [19] | TGI [20] | TGI [21] | TGI [23] | TGI [24] | TGI [25] | TGI [26] | TGI [27] | TGI [29] | TGI [30] | TGI [31] | TGI [32] | TGI [33] | TGI [34] | TGI [58] | TGI [59] | TGI [36] | TGI [37] | TGI [38] | TGI [39] | TGI [40] | TGI [41] | TGI [42] | TGI [43] | TGI [44] | TGI [45] | TGI [46] | TGI [47] | TGI [48] | TGI [49] | TGI [50] | TGI [51] | TGI [52] | TGI [53] | TGI [54] | TGI [56]
